Data from patent US20230085307A1, “PYRIDAZINONE COMPOUND AND HERBICIDE” (NISSAN CHEMICAL CORPORATION, priority 2019, published 2023).

Tests used:
late watergrass = experiment: Test Example 1: herbicidal activity, application before weed generation under submerged conditions (Table 16, symbol A); type: in vivo, late watergrass (Echinochloa oryzicola)
Outline: (§1)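 Submerged Wagner pots (alluvial soil, 4 cm water) sown with weed seeds and planted with 2.5-leaf rice seedlings; emulsifiable concentrate diluted in water applied to water surface on sowing day. Held in greenhouse at 25-30 °C; injury scored 0-5 by herbicidal rate after three weeks.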

Japanese bulrush = experiment: Test Example 1: herbicidal activity, application before weed generation under submerged conditions (Table 16, symbol B); type: in vivo, Japanese bulrush (Schoenoplectus juncoides)
Outline: as §1

oval-leafed pondweed = experiment: Test Example 1: herbicidal activity, application before weed generation under submerged conditions (Table 16, symbol C); type: in vivo, oval-leafed pondweed (Monochoria vaginalis)
Outline: as §1

barnyard grass [1] = experiment: Test Example 3: herbicidal effect by foliage application, Wagner pot (Table 18, symbol H); type: in vivo, barnyard grass (Echinochloa crus-galli)
Outline: (§2)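 Plants were sown in alluvial soil held under 0.1–0.5 cm standing water and grown 14 days in a greenhouse at 25–30 °C. An emulsifiable formulation, water-diluted to the set dose, was then sprayed onto the foliage, and effects were scored three weeks later using previously defined criteria.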

Chinese sprangletop = experiment: Test Example 3: herbicidal effect by foliage application, Wagner pot (Table 18, symbol D); type: in vivo, chinese sprangletop (Leptochloa chinensis)
Outline: as §2

rice flat sedge = experiment: Test Example 3: herbicidal effect by foliage application, Wagner pot (Table 18, symbol E); type: in vivo, rice flat sedge (Cyperus iria)
Outline: as §2

southern crabgrass [2] = experiment: Test Example 4: herbicidal effect by soil treatment (Table 19, symbol F); type: in vivo, southern crabgrass (Digitaria ciliaris)
Outline: (§3)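 Soil-surface application: an emulsion agent diluted with water to the predetermined dose is sprayed uniformly over seeds lying under roughly 1.5 cm of sterilized diluvial soil. Boxes stay in a greenhouse at 25° C. to 30° C. Three weeks later, each species is graded on previously defined criteria.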

green foxtail [3] = experiment: Test Example 4: herbicidal effect by soil treatment (Table 19, symbol G); type: in vivo, green foxtail (Setaria viridis)
Outline: as §3

barnyard grass [4] = experiment: Test Example 4: herbicidal effect by soil treatment (Table 19, symbol H); type: in vivo, barnyard grass (Echinochloa crus-galli)
Outline: as §3

wild oat [5] = experiment: Test Example 4: herbicidal effect by soil treatment (Table 19, symbol I); type: in vivo, wild oat (Avena fatua)
Outline: as §3

blackgrass [6] = experiment: Test Example 4: herbicidal effect by soil treatment (Table 19, symbol J); type: in vivo, blackgrass (Alopecurus myosuroides)
Outline: as §3

Italian ryegrass [7] = experiment: Test Example 4: herbicidal effect by soil treatment (Table 19, symbol K); type: in vivo, Italian ryegrass (Lolium multiflorum)
Outline: as §3

windgrass [8] = experiment: Test Example 4: herbicidal effect by soil treatment (Table 19, symbol L); type: in vivo, windgrass (Apera spica-venti)
Outline: as §3

velvetleaf [9] = experiment: Test Example 4: herbicidal effect by soil treatment (Table 19, symbol M); type: in vivo, velvetleaf (Abutilon theophrasti)
Outline: as §3

redroot pigweed = experiment: Test Example 4: herbicidal effect by soil treatment (Table 19, symbol N); type: in vivo, redroot pigweed (Amaranthus retroflexus)
Outline: as §3

lambsquarters [10] = experiment: Test Example 4: herbicidal effect by soil treatment (Table 19, symbol O); type: in vivo, lambsquarters (Chenopodium album)
Outline: as §3

chickweed = experiment: Test Example 4: herbicidal effect by soil treatment (Table 19, symbol P); type: in vivo, common chickweed (Stellaria media)
Outline: as §3

persian speedwell [11] = experiment: Test Example 4: herbicidal effect by soil treatment (Table 19, symbol R); type: in vivo, Persian speedwell (Veronica persica)
Outline: as §3

southern crabgrass [12] = experiment: Test Example 5: herbicidal effect by foliage application, plastic box (Table 20, symbol F); type: in vivo, southern crabgrass (Digitaria ciliaris); conditions: foliage application
Outline: (§4)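 Sow seeds spot-wise in sterilized diluvial soil; cover with ~1.5 cm soil. Grow 14 days in greenhouse, 25° C. to 30° C. Spray foliage with emulsion diluted to predetermined amount. Rate effect after 3 weeks.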

green foxtail [13] = experiment: Test Example 5: herbicidal effect by foliage application, plastic box (Table 20, symbol G); type: in vivo, green foxtail (Setaria viridis); conditions: foliage application
Outline: as §4

barnyard grass [14] = experiment: Test Example 5: herbicidal effect by foliage application, plastic box (Table 20, symbol H); type: in vivo, barnyard grass (Echinochloa crus-galli); conditions: foliage application
Outline: as §4

wild oat [15] = experiment: Test Example 5: herbicidal effect by foliage application, plastic box (Table 20, symbol I); type: in vivo, wild oat (Avena fatua); conditions: foliage application
Outline: as §4

blackgrass [16] = experiment: Test Example 5: herbicidal effect by foliage application, plastic box (Table 20, symbol J); type: in vivo, blackgrass (Alopecurus myosuroides); conditions: foliage application
Outline: as §4

Italian ryegrass [17] = experiment: Test Example 5: herbicidal effect by foliage application, plastic box (Table 20, symbol K); type: in vivo, Italian ryegrass (Lolium multiflorum); conditions: foliage application
Outline: as §4

windgrass [18] = experiment: Test Example 5: herbicidal effect by foliage application, plastic box (Table 20, symbol L); type: in vivo, windgrass (Apera spica-venti); conditions: foliage application
Outline: as §4

velvetleaf [19] = experiment: Test Example 5: herbicidal effect by foliage application, plastic box (Table 20, symbol M); type: in vivo, velvetleaf (Abutilon theophrasti); conditions: foliage application
Outline: as §4

lambsquarters [20] = experiment: Test Example 5: herbicidal effect by foliage application, plastic box (Table 20, symbol O); type: in vivo, lambsquarters (Chenopodium album); conditions: foliage application
Outline: as §4

persian speedwell [21] = experiment: Test Example 5: herbicidal effect by foliage application, plastic box (Table 20, symbol R); type: in vivo, Persian speedwell (Veronica persica); conditions: foliage application
Outline: as §4

[22] = 80 g/ha, 3 weeks after application
[23] = amount of applied herbicide 344 g/ha
[24] = 344 g/ha, three weeks after application

SMILES: CC=CCOc1ccc(-c2sc3ccccc3c2-c2c(O)c(C)nn(C)c2=O)cc1 [1-211]
- Herbicidal effect on A: late watergrass (grade 0-5) (late watergrass; 80 g/ha applied herbicide): 5 (Herbicidal rate of 90% or more (almost completely withered))
- Herbicidal effect on B: Japanese bulrush (grade 0-5) (Japanese bulrush; 80 g/ha applied herbicide): 3 (Herbicidal rate of 40% or more and less than 70%)
- Herbicidal effect on C: oval-leafed pondweed (grade 0-5) (oval-leafed pondweed; 80 g/ha applied herbicide): 3 (Herbicidal rate of 40% or more and less than 70%)
- herbicidal effect on H (barnyard grass), rating 0-5 (barnyard grass [1]; 80 g/ha): 4 (Herbicidal rate of 70% or more and less than 90%)
- herbicidal effect on D (Chinese sprangletop), rating 0-5 (Chinese sprangletop; 80 g/ha): 4 (Herbicidal rate of 70% or more and less than 90%)
- herbicidal effect on E (rice flat sedge), rating 0-5 (rice flat sedge; 80 g/ha): 4 (Herbicidal rate of 70% or more and less than 90%)
- F: southern crabgrass, herbicidal effect rating (southern crabgrass [2]; AAH 80 g/ha): 0 (Herbicidal rate of 5% or less (almost no effect))
- G: green foxtail, herbicidal effect rating (green foxtail [3]; AAH 80 g/ha): 0 (Herbicidal rate of 5% or less (almost no effect))
- H: barnyard grass, herbicidal effect rating (barnyard grass [4]; AAH 80 g/ha): 0 (Herbicidal rate of 5% or less (almost no effect))
- I: wild oat, herbicidal effect rating (wild oat [5]; AAH 80 g/ha): 0 (Herbicidal rate of 5% or less (almost no effect))
- J: blackgrass, herbicidal effect rating (blackgrass [6]; AAH 80 g/ha): 0 (Herbicidal rate of 5% or less (almost no effect))
- K: Italian ryegrass, herbicidal effect rating (Italian ryegrass [7]; AAH 80 g/ha): 0 (Herbicidal rate of 5% or less (almost no effect))
- L: windgrass, herbicidal effect rating (windgrass [8]; AAH 80 g/ha): 0 (Herbicidal rate of 5% or less (almost no effect))
- M: velvetleaf, herbicidal effect rating (velvetleaf [9]; AAH 80 g/ha): 0 (Herbicidal rate of 5% or less (almost no effect))
- N: redroot pigweed, herbicidal effect rating (redroot pigweed; AAH 80 g/ha): 3 (Herbicidal rate of 40% or more and less than 70%)
- O: lambsquarters, herbicidal effect rating (lambsquarters [10]; AAH 80 g/ha): 0 (Herbicidal rate of 5% or less (almost no effect))
- P: chickweed, herbicidal effect rating (chickweed; AAH 80 g/ha): 0 (Herbicidal rate of 5% or less (almost no effect))
- R: persian speedwell, herbicidal effect rating (persian speedwell [11]; AAH 80 g/ha): 0 (Herbicidal rate of 5% or less (almost no effect))
- effect on southern crabgrass (F) (southern crabgrass [12]; [22]): 3 (Herbicidal rate of 40% or more and less than 70%)
- effect on green foxtail (G) (green foxtail [13]; [22]): 5 (Herbicidal rate of 90% or more (almost completely withered))
- effect on barnyard grass (H) (barnyard grass [14]; [22]): 3 (Herbicidal rate of 40% or more and less than 70%)
- effect on wild oat (I) (wild oat [15]; [22]): 0 (Herbicidal rate of 5% or less (almost no effect))
- effect on blackgrass (J) (blackgrass [16]; [22]): 2 (Herbicidal rate of 20% or more and less than 40%)
- effect on Italian ryegrass (K) (Italian ryegrass [17]; [22]): 3 (Herbicidal rate of 40% or more and less than 70%)
- effect on windgrass (L) (windgrass [18]; [22]): 0 (Herbicidal rate of 5% or less (almost no effect))
- effect on velvetleaf (M) (velvetleaf [19]; [22]): 4 (Herbicidal rate of 70% or more and less than 90%)
- effect on lambsquarters (O) (lambsquarters [20]; [22]): 5 (Herbicidal rate of 90% or more (almost completely withered))
- effect on persian speedwell (R) (persian speedwell [21]; [22]): 5 (Herbicidal rate of 90% or more (almost completely withered))

SMILES: CCCC(=O)Oc1c(C)nn(C)c(=O)c1-c1c(-c2ccc(F)cc2OC)sc2cc(OC)c(Cl)cc12 [5-076]
- Herbicidal effect, A: late watergrass (late watergrass; [23]): 2 (Herbicidal rate of 20% or more and less than 40%)
- Herbicidal effect, B: Japanese bulrush (Japanese bulrush; [23]): 0 (Herbicidal rate of 5% or less (almost no effect))
- Herbicidal effect, C: oval-leafed pondweed (oval-leafed pondweed; [23]): 1 (Herbicidal rate of 5% or more and less than 20%)
- herbicidal effect on barnyard grass (H) (barnyard grass [1]; 344 g/ha): 5 (Herbicidal rate of 90% or more (almost completely withered))
- herbicidal effect on Chinese sprangletop (D) (Chinese sprangletop; 344 g/ha): 0 (Herbicidal rate of 5% or less (almost no effect))
- herbicidal effect on rice flat sedge (E) (rice flat sedge; 344 g/ha): 0 (Herbicidal rate of 5% or less (almost no effect))
- F: southern crabgrass, herbicidal effect grade (southern crabgrass [2]; [23]): 3 (Herbicidal rate of 40% or more and less than 70%)
- G: green foxtail, herbicidal effect grade (green foxtail [3]; [23]): 3 (Herbicidal rate of 40% or more and less than 70%)
- H: barnyard grass, herbicidal effect grade (barnyard grass [4]; [23]): 1 (Herbicidal rate of 5% or more and less than 20%)
- I: wild oat, herbicidal effect grade (wild oat [5]; [23]): 0 (Herbicidal rate of 5% or less (almost no effect))
- J: blackgrass, herbicidal effect grade (blackgrass [6]; [23]): 0 (Herbicidal rate of 5% or less (almost no effect))
- K: Italian ryegrass, herbicidal effect grade (Italian ryegrass [7]; [23]): 0 (Herbicidal rate of 5% or less (almost no effect))
- L: windgrass, herbicidal effect grade (windgrass [8]; [23]): 0 (Herbicidal rate of 5% or less (almost no effect))
- M: velvetleaf, herbicidal effect grade (velvetleaf [9]; [23]): 1 (Herbicidal rate of 5% or more and less than 20%)
- N: redroot pigweed, herbicidal effect grade (redroot pigweed; [23]): 4 (Herbicidal rate of 70% or more and less than 90%)
- O: lambsquarters, herbicidal effect grade (lambsquarters [10]; [23]): 3 (Herbicidal rate of 40% or more and less than 70%)
- P: chickweed, herbicidal effect grade (chickweed; [23]): 0 (Herbicidal rate of 5% or less (almost no effect))
- R: persian speedwell, herbicidal effect grade (persian speedwell [11]; [23]): 0 (Herbicidal rate of 5% or less (almost no effect))
- herbicidal effect on southern crabgrass (F) (southern crabgrass [12]; [24]): 1 (Herbicidal rate of 5% or more and less than 20%)
- herbicidal effect on green foxtail (G) (green foxtail [13]; [24]): 4 (Herbicidal rate of 70% or more and less than 90%)
- herbicidal effect on barnyard grass (H) (barnyard grass [14]; [24]): 3 (Herbicidal rate of 40% or more and less than 70%)
- herbicidal effect on wild oat (I) (wild oat [15]; [24]): 0 (Herbicidal rate of 5% or less (almost no effect))
- herbicidal effect on blackgrass (J) (blackgrass [16]; [24]): 1 (Herbicidal rate of 5% or more and less than 20%)
- herbicidal effect on Italian ryegrass (K) (Italian ryegrass [17]; [24]): 0 (Herbicidal rate of 5% or less (almost no effect))
- herbicidal effect on windgrass (L) (windgrass [18]; [24]): 3 (Herbicidal rate of 40% or more and less than 70%)
- herbicidal effect on velvetleaf (M) (velvetleaf [19]; [24]): 3 (Herbicidal rate of 40% or more and less than 70%)
- herbicidal effect on lambsquarters (O) (lambsquarters [20]; [24]): 4 (Herbicidal rate of 70% or more and less than 90%)
- herbicidal effect on persian speedwell (R) (persian speedwell [21]; [24]): 0 (Herbicidal rate of 5% or less (almost no effect))
